Data published in patent US20100022514A1, “Heterocycle Compounds and Methods of Use Thereof” (NORVARTIS AG, priority 2006, published 2010).

Tests used:
HDAC-1 = biological target: T1, HDAC-1 (Homo sapiens, UniProt Q13547); assay: Deacetylase fluorescence assay (HDAC-1); format: biochemical; settings: read-out: HDAC-1 IC50
T1 construct: made in house
Procedure: Conventional methods are used to express deacetylase enzymes and purify them from lysed cells. The following example describes an exemplary procedure, however equivalent procedures are within the scope of the invention.
The cell line used is a derivative of 293 cells overexpressing a fusion of the gene encoding each deacetylase protein with a nucleotide sequence encoding the Flag marker.
Cells are grown in Optimem, 2% Fetal Calf Serum, Pen/Strep. For enzyme preparation, Lysis buffer (IPLS) is 50 mM Tris-HCl, pH 7.5, 120 mM NaCl, 0.5 mM EDTA and 0.5% Nonidet P-40, to which is added one tablet of Protease inhibitors (Roche 11836170001) per 10 ml buffer. Other buffers are IPHS, which is IPLS containing 1 M NaCl; TBS (Sigma #T5912) dilute 10× stock to 1× with dH2O; HD buffer: 10 mM Tris pH 8.0 (1M Stock) 10 mM NaCl (5M Stock), 10% glycerol, and for dialysis: 400 μM PMSF is added (for 2 L: use 8 ml 100 mM Stock). Protease inhibitors (Complete mini, Boehringer Mannheim), 1 tablet/10 mL are added to all buffers but not used in buffers for enzyme assays.
Cells are harvested without using trypsin, and most cells are obtained easily in PBS, with gentle striking or agitation of flasks if necessary. More adherent cells are scraped in PBS. Cells are grown in 500 cm^2 trays, from which about half of the media is aspirated (50 ml total), then cells are scraped in the rest of the media and transferred to a centrifuge tube. Trays are washed with 25 ml cold PBS, scraped again to collect additional cells, and centrifuged at 1500 rpm at 4° C. for 5 min. Cells are washed at least 3 times in PBS to remove growth media, pelleting cells after each wash by centrifugation at 1500 rpm for 5 minutes. After washing, PBS is removed and the resulting cell pellet frozen at −80° C. for storage prior to purification.
For purification, cells are resuspended in lysis buffer, 12 ml of IPLS for cells collected from 10 500 cm trays. Cells are lysed at 4° C. for 3 hrs with rocking, and debris is removed by centrifugation for 20 min at 17,000 rpm in 30 ml centrifuge tubes. If supernatant is not clear afterward, centrifugation of the supernatant is repeated. Protein concentration of the whole cell lysate is determined (generally in the range of about 2-5 mg/ml).
For immunoprecipitation per mg of protein, 15 μL of anti-Flag M2-Agarose Affinity beads (Sigma #A2220) is used. Beads are prepared by washing 3 times with 10× bead volume of PBS and 1 time with IPLS, with centrifugation of the washes at 1500 rpm for 5 min. Whole cell lysate is incubated with the Ab-beads overnight at 4° C. Then beads are centrifuged and washed in 5× volume of the following buffers: three times in IPLS (30 sec at 4° C., spin at 1500 RPM for 5 min); three times in IPHS; and three times in TBS buffer. After each centrifugation, the supernatant is aspirated, leaving the pellet as dry as possible but avoiding sucking up any of the beads.
To elute the enzyme, beads are resuspended in 5× bead volume of TBS with protease inhibitor (Roche 11836170001) 1 tablet/10 mL. Enzyme is eluted with 400 μg/mL Flag peptide (Sigma #F-3290) for 3 hrs at 4° C. on rotator. Then beads are centrifuged, and the supernatant is transferred to a new tube to which is added 1/10 volume of glycerol. The supernatant is transferred to a dialysis cassette (Pierce #66410) using a 3 cc syringe and 18 G needle, and is dialyze sup in 2 L HD buffer for 2 hrs at 4° C. (1 L/hour). The resulting purified deacetylase is divided into aliquots (300 μL/tube), is snap frozen in dry ice bath, and is stored at −80° C.
For assay of deacetylase an assay based on Deacetylase Fluorescent Activity Assay/Drug Discovery Kit (BioMol # AK500) is used, however any equivalent deacetylase assay is within the scope of the invention.
The Fluorescent Assay Buffer (FAB) contains: 25 mM Tris-HCl, pH 8.0, 137 mM NaCl, 2.7 mM KCl and 1 mM MgCl2. […]

[1] = system: p21 promoter (p21-luc) in H1299 cells; assay: p21 promoter luciferase assay using stably transfected p21-luc in H1299 cells; format: cell-based; settings: Homo sapiens, NCI-H1299
Procedure: The cell lines used are derived from H1299 (p21-luc). The growth media used is RPMI 1640, 10% FBS, 1% Pen/Strep and the selection media added is 500 μg/mL Geneticin (Gibco). The buffer used is 5× cell culture lysis buffer (Promega #E1531), stored at −20 C and the Luciferase assay reagent (Promega #E1483) is stored at −70° C. The results of the assay are analyzed using Wallac Software.
To assay Luciferase, the cell culture medium is removed after one day of growth and the flasks are washed once with PBS. The cells are trypsinized in 20 mL of media and the trypsin is neutralized. The cells are counted (0.5-1 mL) on a Vi-Cell XR cell viability analyzer.
Cells are then diluted to a concentration of approximately 5000 cells/200 μL, and 190 μL samples are aliquoted into each well of a Costar white 96-well TC treated white bottom plate with lid (Costar #3917). Plates are then incubated overnight at 37 C.
After a further day, a sample of the compound is added to the wells for assay.
After a further day, the cells are lysed and the luciferase activity of the lysed cells is measured. Each well is washed twice with PBS and 20 μL/well of 1× cell culture lysis buffer (dilute 5× to 1× in distilled water) is added to each well. The microtiter plates are then shaken on a microtiter plate shaker for 20 minutes at room temperate at a speed setting of 5-6. After removal from the shaker, 100 μL of Luciferase Reagent is added to each well. Each microtiter plate is then read on Wallac Envision instrument.

T1 sequence (Q13547 whole entry): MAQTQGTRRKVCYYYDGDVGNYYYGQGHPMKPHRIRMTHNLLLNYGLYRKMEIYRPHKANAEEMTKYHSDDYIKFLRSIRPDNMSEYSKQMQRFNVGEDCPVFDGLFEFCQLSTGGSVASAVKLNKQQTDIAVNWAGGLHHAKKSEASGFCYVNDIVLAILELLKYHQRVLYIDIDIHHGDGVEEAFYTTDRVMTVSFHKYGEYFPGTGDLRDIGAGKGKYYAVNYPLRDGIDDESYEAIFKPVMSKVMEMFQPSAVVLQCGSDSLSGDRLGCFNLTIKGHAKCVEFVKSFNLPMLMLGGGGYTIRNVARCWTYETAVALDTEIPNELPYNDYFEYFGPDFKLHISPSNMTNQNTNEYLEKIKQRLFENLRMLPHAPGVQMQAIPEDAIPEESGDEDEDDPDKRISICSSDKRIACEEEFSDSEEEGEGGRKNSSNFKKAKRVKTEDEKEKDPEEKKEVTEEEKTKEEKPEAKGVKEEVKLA

| SMILES | IC50 (HDAC-1) [µM] | AC50 [1] [µM] |
| --- | --- | --- |
| CN(C)c1ccc(C(=O)N2CCc3ccc(CCC(=O)NO)cc3C2)cc1 [Example 90, 3-[2-(4-Dimethylamino-benzoyl)-1,2,3,4-tetrahydro-isoquinolin-7-yl]-N-hydroxy-propionamide] | 0.1 to 1 | > 1 |
| O=C(/C=C/c1ccc2c(c1)CN(C(=O)C1CCCC1)C2)NO [Example 22, (E)-3-(2-Cyclopentanecarbonyl-2,3-dihydro-1H-isoindol-5-yl)-N-hydroxy-acrylamide] | 0.1 to 1 | > 1 |
| O=C(/C=C/c1ccc2c(c1)CN(C(=O)Cc1ccccc1)CC2)NO [Example 63, (E)-N-Hydroxy-3-(2-phenylacetyl-1,2,3,4-tetrahydro-isoquinolin-7-yl)-acrylamide] | < 0.1 | > 1 |
| Cc1noc(-c2ccccc2)c1CCN1CCc2cc(/C=C/C(=O)NO)ccc2C1 [Example 78, (E)-N-Hydroxy-3-{2-[2-(3-methyl-5-phenyl-isoxazol-4-yl)-ethyl]-1,2,3,4-tetrahydro-isoquinolin-6-yl}-acrylamide] | < 0.1 | > 1 |
| Cc1nn(C)c(C)c1CCN1CCc2ccc(/C=C/C(=O)NO)cc2C1 [Example 50, (E)-N-Hydroxy-3-{2-[2-(1,3,5-trimethyl-1H-pyrazol-4-yl)-ethyl]-1,2,3,4-tetrahydro-isoquinolin-7-yl}-acrylamide] | 0.1 to 1 | > 1 |
| Cc1noc(-c2ccccc2)c1CCN1CCc2ccc(/C=C/C(=O)NO)cc2C1 [Example 38, (E)-N-Hydroxy-3-{2-[2-(3-methyl-5-phenyl-isoxazol-4-yl)-ethyl]-1,2,3,4-tetrahydro-isoquinolin-7-yl}-acrylamide] | < 0.1 | > 1 |
| O=C(/C=C/c1ccc2c(c1)CN(CCc1ccnn1-c1ccccc1)CC2)NO [Example 48, (E)-N-Hydroxy-3-{2-[2-(2-phenyl-2H-pyrazol-3-yl)-ethyl]-1,2,3,4-tetrahydro-isoquinolin-7-yl}-acrylamide] | 0.1 to 1 | > 1 |
| Cc1[nH]c2ccccc2c1CCN1CCc2ccc(CCC(=O)NO)cc2C1 [Example 37, N-Hydroxy-3-{2-[2-(2-methyl-1H-indol-3-yl)-ethyl]-1,2,3,4-tetrahydro-isoquinolin-7-yl}-propionamide] | > 1 | > 1 |
| COc1ccc(C(=O)N2CCc3cc(/C=C/C(=O)NO)ccc3C2)cc1 [Example 89, (E)-N-Hydroxy-3-[2-(4-methoxy-benzoyl)-1,2,3,4-tetrahydro-isoquinolin-6-yl]-acrylamide] | 0.1 to 1 | > 1 |
| O=C(/C=C/c1ccc2c(c1)CCN(Cc1ccccc1)C2)NO [Example 77, (E)-3-(2-Benzyl-1,2,3,4-tetrahydro-isoquinolin-6-yl)-N-hydroxy-acrylamide] | 0.1 to 1 | > 1 |
| O=C(/C=C/c1ccc2c(c1)CN(C(=O)Cc1ccc(Cl)cc1)CC2)NO [Example 66, (E)-3-{2-[2-(4-Chloro-phenyl)-acetyl]-1,2,3,4-tetrahydro-isoquinolin-7-yl}-N-hydroxy-acrylamide] | < 0.1 | > 1 |
| O=C(/C=C/c1ccc2c(c1)CN(C(=O)Cc1ccccc1)C2)NO [Example 26, (E)-N-Hydroxy-3-(2-phenylacetyl-2,3-dihydro-1H-isoindol-5-yl)-acrylamide] | 0.1 to 1 | > 1 |
| Cc1[nH]c2ccccc2c1CC(=O)N1CCc2ccc(CCC(=O)NO)cc2C1 [Example 62, N-Hydroxy-3-{2-[2-(2-methyl-1H-indol-3-yl)-acetyl]-1,2,3,4-tetrahydro-isoquinolin-7-yl}-propionamide] | < 0.1 | > 1 |
| O=C(CCc1ccc2c(c1)CN(CCC1CCCCC1)CC2)NO [Example 31] | 0.1 to 1 | > 1 |
| O=C(/C=C/c1ccc2c(c1)CN(C(=O)C1CC1)C2)NO [Example 23, (E)-3-(2-Cyclopropanecarbonyl-2,3-dihydro-1H-isoindol-5-yl)-N-hydroxy-acrylamide] | 0.1 to 1 | > 1 |
| O=C(/C=C/c1ccc2c(c1)CN(C(=O)Cc1ccc(Cl)c(Cl)c1)CC2)NO [Example 67, (E)-3-{2-[2-(3,4-Dichloro-phenyl)-acetyl]-1,2,3,4-tetrahydro-isoquinolin-7-yl}-N-hydroxy-acrylamide] | < 0.1 | > 1 |
| COc1ccc(C(=O)N2CCc3ccc(/C=C/C(=O)NO)cc3C2)cc1 [Example 57, (E)-N-Hydroxy-3-[2-(4-methoxy-benzoyl)-1,2,3,4-tetrahydro-isoquinolin-7-yl]-acrylamide] | < 0.1 | > 1 |
| O=C(/C=C/c1ccc2c(c1)CN(C(=O)C1CCCCC1)C2)NO [Example 21, (E)-3-(2-Cyclohexanecarbonyl-2,3-dihydro-1H-isoindol-5-yl)-N-hydroxy-acrylamide] | 0.1 to 1 | > 1 |
| O=C(/C=C/c1ccc2c(c1)CN(S(=O)(=O)c1ccc(C(F)(F)F)cc1)C2)NO [Example 10, (E)-N-Hydroxy-3-[2-(4-trifluoromethyl-benzenesulfonyl)-2,3-dihydro-1H-isoindol-5-yl]-acrylamide] | 0.1 to 1 | > 1 |
| COc1cccc(S(=O)(=O)N2CCc3cc(CCC(=O)NO)ccc3C2)c1 [Example 84, N-Hydroxy-3-[2-(3-methoxy-benzenesulfonyl)-1,2,3,4-tetrahydro-isoquinolin-6-yl]-propionamide] | 0.1 to 1 | > 1 |
| Cc1ccc(S(=O)(=O)N2Cc3ccc(/C=C/C(=O)NO)cc3C2)cc1 [Example 8, (E)-N-Hydroxy-3-[2-(toluene-4-sulfonyl)-2,3-dihydro-1H-isoindol-5-yl]-acrylamide] | < 0.1 | > 1 |
| Cc1nn2ccccc2c1CCN1CCc2ccc(/C=C/C(=O)NO)cc2C1 [Example 40, (E)-N-Hydroxy-3-{2-[2-(2-methyl-pyrazolo[1,5-a]pyridin-3-yl)-ethyl]-1,2,3,4-tetrahydro-isoquinolin-7-yl}-acrylamide] | < 0.1 | > 1 |
| Cc1nn2ccccc2c1CCN1CCc2ccc(/C=C/C(=O)NO)cc2CC1 [Example 71, (E)-N-Hydroxy-3-{3-[2-(2-methyl-pyrazolo[1,5-a]pyridin-3-yl)-ethyl]-2,3,4,5-tetrahydro-1H-benzo[d]azepin-7-yl}-acrylamide] | 0.1 to 1 | > 1 |
